Experimental data reported in ChEMBL document CHEMBL1154499 (Bioorg Med Chem Lett, 2008).

Columns and labels:
[1] = (§1) Antagonist activity at Escherichia coli DH5alpha LasR receptor assessed as inhibition of OdDHL-induced response by beta-galctosidase reporter gene assay; assay type: functional
[2] = molecular target: T1, Transcriptional activator protein LuxR (Vibrio fischeri (strain ATCC 700601 / ES114), UniProt P35327); test: (§2) Antagonist activity at Vibrio fischeri ES114 LuxR receptor assessed as inhibition of OHHL-induced response by luciferase reporter gene assay; assay type: functional, Aliivibrio fischeri
T1 sequence (P35327 whole entry): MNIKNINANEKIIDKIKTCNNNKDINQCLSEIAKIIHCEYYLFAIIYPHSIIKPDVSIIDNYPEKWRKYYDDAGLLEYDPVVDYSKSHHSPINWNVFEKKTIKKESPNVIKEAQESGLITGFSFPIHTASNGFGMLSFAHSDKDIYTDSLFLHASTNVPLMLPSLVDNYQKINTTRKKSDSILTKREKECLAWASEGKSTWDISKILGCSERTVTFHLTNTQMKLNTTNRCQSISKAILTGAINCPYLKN

[3] = molecular target: T2, Transcriptional activator protein LuxR (Vibrio fischeri (strain ATCC 700601 / ES114)) (UniProt P35327); test: as §2; assay type: functional; conditions: Aliivibrio fischeri, concentration not given here
T2 sequence (whole entry): T1 sequence (P35327 whole entry)

[4] = Agonist activity at Escherichia coli DH5alpha LasR receptor by beta-galctosidase reporter gene assay; assay type: functional
[5] = molecular target: T3, Transcriptional activator protein TraR (Agrobacterium tumefaciens, UniProt P33905); test: Antagonist activity at Agrobacterium tumefaciens WCF47 TraR receptor assessed as inhibition of OOHL-induced response by beta-galctosidase reporter gene assay
T3 sequence (P33905 whole entry): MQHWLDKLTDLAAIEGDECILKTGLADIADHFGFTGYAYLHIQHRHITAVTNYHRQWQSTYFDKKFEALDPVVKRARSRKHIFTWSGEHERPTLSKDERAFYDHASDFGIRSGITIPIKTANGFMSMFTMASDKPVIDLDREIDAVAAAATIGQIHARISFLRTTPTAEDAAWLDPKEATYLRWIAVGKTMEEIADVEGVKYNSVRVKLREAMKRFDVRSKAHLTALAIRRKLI

[6] = system: Escherichia coli; test: as §1; assay type: functional; conditions: dose or concentration not given here
[7] = system: Escherichia coli; test: Agonist activity at Escherichia coli DH5alpha LasR receptor at 100 uM by beta-galctosidase reporter gene assay relative to OdDHL; assay type: functional
[8] = molecular target: T2, Transcriptional activator protein LuxR (Vibrio fischeri (strain ATCC 700601 / ES114)); test: Agonist activity at Vibrio fischeri ES114 LuxR receptor at 100 uM by luciferase reporter gene assay relative to OHHL; assay type: functional; conditions: Aliivibrio fischeri

| SMILES | IC50 [1] | IC50 [2] | IC50 [5] | also measured |
| --- | --- | --- | --- | --- |
| O=C(CCc1ccc(Br)cc1)N[C@H]1CCOC1=O | 340 nM | – | – | – |
| O=C(CCc1ccc(F)cc1)N[C@H]1CCOC1=O | 12000 nM | 2700 nM | – | – |
| Cc1cccc(CC(=O)N[C@H]2CCOC2=O)c1 | – | 2000 nM | – | inhibition [3]: 91% |
| CCCCCC(=O)CC(=O)N[C@H]1CCOC1=O | – | – | – | EC50 [4]: > 10000 nM |
| Cc1cccc(OCC(=O)N[C@H]2CCOC2=O)c1 | 7800 nM | – | 1100 nM | – |
| O=C(Cc1cccc2ccccc12)N[C@H]1CCOC1=O | – | 1300 nM | – | – |
| COc1ccc(CCC(=O)N[C@H]2CCOC2=O)cc1 | 6800 nM | – | – | – |
| O=C(Cc1ccc(Cl)c(Cl)c1)N[C@H]1CCOC1=O | – | – | 2400 nM | – |
| O=C(CCc1ccc([N+](=O)[O-])cc1)N[C@H]1CCOC1=O | 3000 nM | 990 nM | 1600 nM | inhibition [6]: 67% |
| O=C(COc1ccc(OC(F)(F)F)cc1)N[C@H]1CCOC1=O | – | – | – | EC50 [4]: 6300 nM; Activity [7]: 30% |
| O=C(CCc1cccc(Br)c1)N[C@H]1CCOC1=O | 3300 nM | 530 nM | – | – |
| CCCCCCCCCC(=O)CC(=O)N[C@H]1CCOC1=O | – | – | – | EC50 [4]: 10 nM |
| O=C(Cc1ccc(I)cc1)N[C@H]1CCOC1=O | 1720 nM | – | 1250 nM | – |
| O=C(CCc1cccc(C(F)(F)F)c1)N[C@H]1CCOC1=O | – | 500 nM | – | – |
| COc1ccc(OCC(=O)N[C@H]2CCOC2=O)cc1 | – | – | 4300 nM | – |
| N#Cc1cccc(CC(=O)N[C@H]2CCOC2=O)c1 | – | – | – | Activity [8]: 75% |
| O=C(CCc1cccc([N+](=O)[O-])c1)N[C@H]1CCOC1=O | 3400 nM | 880 nM | – | – |
| O=C(Cc1cccc(I)c1)N[C@H]1CCOC1=O | 4630 nM | – | – | – |
| O=C(COc1ccc(I)cc1)N[C@H]1CCOC1=O | 2000 nM | 1900 nM | 440 nM | inhibition [6]: 63% |
| Cc1ccc(CCC(=O)N[C@H]2CCOC2=O)cc1 | 4300 nM | 2200 nM | – | – |
| Cc1cccc(CCC(=O)N[C@H]2CCOC2=O)c1 | 8900 nM | 2100 nM | – | – |
| O=C(COc1ccc(Cl)cc1)N[C@H]1CCOC1=O | 4700 nM | – | 620 nM | – |
| O=C(COc1ccc(F)cc1)N[C@H]1CCOC1=O | – | – | 2700 nM | – |

| SMILES | IC50 [1] | IC50 [2] | IC50 [5] | also measured |
| --- | --- | --- | --- | --- |
| CSc1ccc(CC(=O)N[C@H]2CCOC2=O)cc1 | – | 2100 nM | 8400 nM | – |
| O=C(CCc1ccc(Cl)cc1)N[C@H]1CCOC1=O | 2200 nM | 970 nM | 3300 nM | – |
| O=C(Cc1cc(C(F)(F)F)cc(C(F)(F)F)c1)N[C@H]1CCOC1=O | – | – | – | Activity [8]: 70%; EC50 [4]: 6300 nM |
| O=C(COc1ccc(C(F)(F)F)cc1)N[C@H]1CCOC1=O | – | – | 1600 nM | – |
| O=C(Cc1cccc(C(F)(F)F)c1)N[C@H]1CCOC1=O | – | 1400 nM | – | – |
| O=C(COc1cccc([N+](=O)[O-])c1)N[C@H]1CCOC1=O | – | 2400 nM | – | – |
| O=C(CCc1ccc(I)cc1)N[C@H]1CCOC1=O | – | 630 nM | 2100 nM | – |
| O=C(CCc1cccc(I)c1)N[C@H]1CCOC1=O | 1800 nM | 390 nM | – | – |
| O=C(COc1ccc(Br)cc1)N[C@H]1CCOC1=O | 2100 nM | 3000 nM | 510 nM | inhibition [6]: 67% |
| O=C(Cc1ccc2ccccc2c1)N[C@H]1CCOC1=O | – | 940 nM | 4200 nM | – |
| O=C(Cc1cccc([N+](=O)[O-])c1)N[C@H]1CCOC1=O | 610 nM | – | – | – |
| O=C(COc1ccc([N+](=O)[O-])cc1)N[C@H]1CCOC1=O | – | – | 290 nM | – |
| Cc1ccc(OCC(=O)N[C@H]2CCOC2=O)cc1 | – | – | 1800 nM | – |
| O=C(Cc1ccc(SC(F)(F)F)cc1)N[C@H]1CCOC1=O | – | 1300 nM | 4700 nM | Activity [7]: 65% |
| O=C(CCc1ccc(C(F)(F)F)cc1)N[C@H]1CCOC1=O | – | 2200 nM | 210 nM | EC50 [4]: > 10000 nM |
| CCCC(=O)CC(=O)N[C@H]1CCOC1=O | – | – | – | EC50 [4]: > 10000 nM |
| CSc1ccc(CCC(=O)N[C@H]2CCOC2=O)cc1 | – | 1700 nM | 1100 nM | – |
| O=C(Cc1ccc([N+](=O)[O-])cc1)N[C@H]1CCOC1=O | – | 960 nM | 2250 nM | – |
| O=C(CCc1ccc2c(c1)OCO2)N[C@H]1CCOC1=O | 3400 nM | – | – | – |
| CSc1cccc(CC(=O)N[C@H]2CCOC2=O)c1 | – | 1500 nM | – | – |
| O=C(Cc1ccc(F)c(C(F)(F)F)c1)N[C@H]1CCOC1=O | – | 1000 nM | – | – |
| COc1cccc(CC(=O)N[C@H]2CCOC2=O)c1 | – | 2500 nM | – | inhibition [3]: 85% |
